Test results reported in patent US20080009548A1, “AMBROXOL FOR THE TREATMENT OF ACUTE PAIN” (priority 2003, published 2008).

What was measured:
[1] = tested on: voltage-dependent calcium channels; assay: Patch-Clamp measurement of current through voltage-dependent calcium channels in posterior root ganglia neurons; format: cell-based; conditions: neuron cultures from adult rat posterior root ganglia; voltage jumps from −80 mV to 0 mV for 50 ms
Excerpt: Voltage-dependent calcium channels play an important role in the transmission of pain-related excitation in the nervous system. The blocking of these channels has been described as being helpful for the treatment of acute pain (KA Sluka (1998), JPET 287, 232-237; J Devulder et al. (2001), J Pain Sympt Management 22, 622-626). […] Neurons were dissected from posterior root ganglia of adult rats and placed in short-term culture. The cells were investigated electrophysiologically by the Patch-Clamp method (voltage terminal), and the flow of current through voltage-dependent calcium channels was measured after electrical stimulation (voltage jumps from −80 mV to 0 mV holding potential for 50 ms) in the presence and absence of ambroxol.

[2] = biological target: tetrodotoxin-resistant sodium channels (Rattus norvegicus, UniProt Q62968); format: cell-based; conditions: neuron cultures from the posterior root ganglia of adult rats; read-out: half-maximal inhibition of tetrodotoxin-resistant sodium channels
[3] = tested on: Tetrodotoxin-sensitive currents; format: cell-based, rat; conditions: read-out: IC50 of tetrodotoxin-sensitive currents; neuron cultures from the posterior root ganglia of adult rats
human GluR1/2 receptors = biological target: T1, human GluR1/2 receptors (Homo sapiens, UniProt P42261+P42262); assay: Patch-Clamp measurement of glutamate-induced membrane currents in HEK 293 cells expressing GluR1/2 receptors; format: cell-based; conditions: HEK 293 cells expressing human GluR1/2; 1 mM glutamate for 1 s, holding potential −80 mV
T1 construct: expressed in transfected cells; host or cells: HEK 293
T1 sequence (P42261 19-906): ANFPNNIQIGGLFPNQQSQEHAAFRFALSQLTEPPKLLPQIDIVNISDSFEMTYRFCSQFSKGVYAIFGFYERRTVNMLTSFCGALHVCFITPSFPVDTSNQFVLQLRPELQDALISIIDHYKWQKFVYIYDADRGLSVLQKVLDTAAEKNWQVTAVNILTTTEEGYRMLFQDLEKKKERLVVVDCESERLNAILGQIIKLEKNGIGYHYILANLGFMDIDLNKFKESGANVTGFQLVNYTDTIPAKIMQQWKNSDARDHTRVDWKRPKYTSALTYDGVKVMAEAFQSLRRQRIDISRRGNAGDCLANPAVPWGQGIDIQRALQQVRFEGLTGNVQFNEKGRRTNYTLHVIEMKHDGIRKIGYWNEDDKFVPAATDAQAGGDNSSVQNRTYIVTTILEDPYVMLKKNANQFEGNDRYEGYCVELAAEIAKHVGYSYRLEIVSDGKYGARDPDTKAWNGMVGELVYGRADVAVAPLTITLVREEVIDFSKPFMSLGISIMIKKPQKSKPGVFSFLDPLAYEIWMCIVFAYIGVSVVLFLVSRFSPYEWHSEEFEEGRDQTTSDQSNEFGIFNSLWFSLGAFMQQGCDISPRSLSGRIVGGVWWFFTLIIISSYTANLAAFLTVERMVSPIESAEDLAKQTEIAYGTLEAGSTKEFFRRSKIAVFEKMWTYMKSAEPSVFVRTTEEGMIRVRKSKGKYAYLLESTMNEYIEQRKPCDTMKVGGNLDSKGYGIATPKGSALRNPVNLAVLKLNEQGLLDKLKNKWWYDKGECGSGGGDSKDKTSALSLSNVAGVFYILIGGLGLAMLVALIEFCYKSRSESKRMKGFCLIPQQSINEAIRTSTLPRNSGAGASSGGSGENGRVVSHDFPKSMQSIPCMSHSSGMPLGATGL
T1 sequence (P42262 22-883 limits assumed): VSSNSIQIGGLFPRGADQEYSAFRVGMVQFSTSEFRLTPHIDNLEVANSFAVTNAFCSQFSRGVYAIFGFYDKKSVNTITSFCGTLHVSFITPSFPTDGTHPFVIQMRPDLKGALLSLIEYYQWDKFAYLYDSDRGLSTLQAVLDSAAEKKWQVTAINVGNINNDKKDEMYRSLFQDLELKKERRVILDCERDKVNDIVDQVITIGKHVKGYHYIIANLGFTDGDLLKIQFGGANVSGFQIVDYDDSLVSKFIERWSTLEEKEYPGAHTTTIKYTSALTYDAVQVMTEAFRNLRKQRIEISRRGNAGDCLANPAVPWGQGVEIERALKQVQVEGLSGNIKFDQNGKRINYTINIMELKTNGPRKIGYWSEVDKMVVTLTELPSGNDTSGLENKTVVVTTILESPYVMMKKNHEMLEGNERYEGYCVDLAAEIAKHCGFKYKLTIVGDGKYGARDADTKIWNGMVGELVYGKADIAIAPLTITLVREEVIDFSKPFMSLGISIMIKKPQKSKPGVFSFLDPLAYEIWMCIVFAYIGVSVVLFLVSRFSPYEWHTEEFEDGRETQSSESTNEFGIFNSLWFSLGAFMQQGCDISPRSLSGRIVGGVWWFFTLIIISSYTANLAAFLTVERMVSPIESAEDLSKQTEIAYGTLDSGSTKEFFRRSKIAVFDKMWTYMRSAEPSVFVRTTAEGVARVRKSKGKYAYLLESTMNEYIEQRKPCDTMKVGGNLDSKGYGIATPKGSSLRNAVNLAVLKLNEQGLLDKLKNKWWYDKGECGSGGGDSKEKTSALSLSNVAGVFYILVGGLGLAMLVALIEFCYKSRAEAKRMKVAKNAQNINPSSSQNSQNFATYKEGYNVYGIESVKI
Procedure: Ionotropic glutamate receptors of the AMPA sub-type are also essential for the excitatory neurotransmission. […] The blocking of AMPA receptors has been described as being helpful for the treatment of acute pain (e.g., ji Szekely et al. (1997), EJP 336, 143-154). HEK 293 cells which expressed functionally recombinant human GluR1/2 receptors were electrophysiologically investigated by the Patch-Clamp method ([…]). The administration of 1 mM glutamate (for 1 s at a holding potential of −80 mV) induced membrane currents which were inhibited by the joint administration of ambroxol.

For `Nc1c(Br)cc(Br)cc1CN[C@H]1CC[C@H](O)CC1` [ambroxol, trans-4-(2-amino-3,5-dibromobenzylamino)cyclohexanol], the “concentrations that block voltage-dependent calcium channels” value [1] was 10 to 1000 µM, the IC50 [2] was 35 µM and the IC50 [3] was greater than 100 µM. For the same compound, the “concentrations that inhibit glutamate-induced membrane currents” value (human GluR1/2 receptors) was 30 to 1000 µM.
